{"source": "ChEMBL document CHEMBL1121935", "about": "“Syntheses and activities of antioxidant derivatives of retinoic acids” (1982)", "assay_type_in_all_cases": "functional, Cricetulus griseus", "conditions_in_all_cases": "Epithelial cell", "key": {"Cricetinae gen. sp. [1]": {"tested_on": "Cricetinae gen. sp.", "assay": "In vitro inhibitory activity tested for reverse keratinization of epithelial cells in hamster trachael organ assay at 10E-9 M concentration; (Activity culture/total culture 2/7)"}, "Cricetinae gen. sp. [2]": {"tested_on": "Cricetinae gen. sp.", "assay": "In vitro inhibitory activity tested for reverse keratinization of epithelial cells in hamster trachael organ assay at 10E-9 M concentration; (Activity culture/total culture 419/474)"}, "Cricetinae gen. sp. [3]": {"tested_on": "Cricetinae gen. sp.", "assay": "In vitro inhibitory activity tested for reverse keratinization of epithelial cells in hamster trachael organ assay at 10E-9 M concentration; (Activity culture/total culture 1/6)"}, "Cricetinae gen. sp. [4]": {"tested_on": "Cricetinae gen. sp.", "assay": "In vitro inhibitory activity tested for reverse keratinization of epithelial cells in hamster trachael organ assay at 10E-9 M concentration; (Activity culture/total culture 1/7)"}}, "data": [{"smiles": "CCOc1ccc2c(c1)C(C)=CC(C)(C)N2C(=O)/C=C(C)/C=C/C=C(C)/C=C/C1=C(C)CCCC1(C)C", "values": [{"measurement": "inhibition at 0.001 µM", "setting": "Cricetinae gen. sp. [1]", "result": 28.6, "unit": "%"}]}, {"smiles": "CC1=C(/C=C/C(C)=C/C=C/C(C)=C/C(=O)O)C(C)(C)CCC1", "note": "[TRETINOIN]", "values": [{"measurement": "inhibition at 0.001 µM", "setting": "Cricetinae gen. sp. [2]", "result": 88.4, "unit": "%"}]}, {"smiles": "CC1=C(/C=C/C(C)=C/C=C/C(C)=C/C(=O)Oc2ccc(O)c(C(C)(C)C)c2)C(C)(C)CCC1", "values": [{"measurement": "inhibition at 0.001 µM", "setting": "Cricetinae gen. sp. [3]", "result": 16.7, "unit": "%"}]}, {"smiles": "CC1=C(/C=C/C(C)=C/C=C/C(C)=C/C(=O)Oc2c(C)c(C)c3c(c2C)CC[C@@](C)(CCC[C@H](C)CCC[C@H](C)CCCC(C)C)O3)C(C)(C)CCC1", "values": [{"measurement": "inhibition at 0.001 µM", "setting": "Cricetinae gen. sp. [3]", "result": 16.7, "unit": "%"}]}, {"smiles": "CC1=C(/C=C/C(C)=C/C=C/C(C)=C/C(=O)Oc2ccc(O)cc2C(C)(C)C)C(C)(C)CCC1", "values": [{"measurement": "inhibition at 0.001 µM", "setting": "Cricetinae gen. sp. [4]", "result": 14.3, "unit": "%"}]}]}
